This is an account of results in a melting point compilation (Tetko et al.; mined from patent text by program, amines drawn as free bases though some values may be those of a salt).

Compound `O=C(NC1=Nc2cc(OCCn3cccc3)ccc2C2=NCCN12)c1cccnc1` came in with a melting point of 209 °C.

`COc1cncc2nc(SCc3ccccc3)nn12` registered a melting point of 114 to 116 °C.

As to `O=C(O)c1ccc(-c2nc(-c3ccc(C(F)(F)F)cc3)no2)c([N+](=O)[O-])c1`, the melting point lay within 233 to 234 °C. The figure for `CCc1sc(NC(=O)C2=C(O)c3ccc4ccccc4c3S(=O)(=O)N2C)nc1C` is 253 to 255 °C. The figure for `COc1ccc(C2(O)CCCCC2=O)c(OC)c1OC` (stereo not drawn) is 88 to 91 °C; for `COc1ccc2cc(C=O)ccc2c1Br` it is 133 to 135 °C.

`COc1cc([C@@H]2SC[C@@H](c3cc(OC)c(O)c(OC)c3)S2)cc(OC)c1O` (relative stereo) had a melting point of 169 to 170 °C. The figure for `CNS(=O)(=O)c1cc2c(c(C(=O)NC3CCN(C4CCCCC4)C3)c1)OCCO2` (stereo not drawn) is 160 to 161 °C; for `COc1ccc(-c2ccc(Br)cc2[N+](=O)[O-])cc1` it is 130 to 131 °C. The figure for `COc1nc2ccc(Cl)cc2nc1Sc1nnc(C)s1` is 186 to 188 °C; for `N#Cc1c(N2CCCCC2)cc(-c2ccccc2)c2c1C(=O)c1ccccc1-2` it is 220 to 222 °C; for `c1ccc(-c2cncs2)cc1` it is 45 to 46 °C. `CCOCc1cnc2c([N+](=O)[O-])cccc2c1Cl` registered a melting point of 110 to 126 °C. The figure for `C#CCN1C(=O)COc2cc(F)c(N3C(=O)C4C5CC5CN4C3=O)cc21` (stereo not drawn) is 217 to 219 °C; for `COC(=O)C(C)(C)c1ccc(C(=O)Nc2cn3c4c(ccc3n2)OCC4)cc1` it is 235 to 237 °C; for `COc1ccc2c(c1)C=CC(C#N)N2C(=O)c1ccccc1` (stereo not drawn) it is 124 °C. As to `Cc1[nH]c(=S)n(Nc2cccc(Cl)c2)c1-c1ccc(Cl)cc1`, the melting point was determined as 225 °C. The figure for `CC1OC(=Nc2nccs2)c2c1nc1ccccc1c2O` (stereo not drawn) is above 270 °C.

The compound `C=CS(=O)(=O)Nc1c(C)cc([N+](=O)[O-])cc1C` had a melting point of 132 °C.

For the compound `Cc1cc2c(nc1OCCCCN1CCN(c3cccc4ccccc34)CC1)NC(=O)CC2`, the melting point lay within 76 to 78 °C. The figure for `c1cncc(-c2c[nH]cn2)c1` is 117 to 118 °C; for `C[C@@H](NCc1ccc(O)cc1)c1cccc2ccccc12` it is 132 to 133 °C. The figure for `Cc1ccc2c(Cl)nccc2c1[N+](=O)[O-]` is 171 to 173 °C. With `CCOC(=O)OC1CCN(C(=O)OCC)Cc2c1nc1ccccc1c2C` (stereo not drawn) the figure was 40 °C; with `CN(C)C(=O)COc1cccc(C=Cc2ccc3ccccc3n2)c1`, 104 to 106 °C; with `C=CCc1cc(-c2ccc(F)cc2)cc(C(=O)O)c1O`, 170 to 172 °C. In turn, `CC(=O)NC(Cc1c[nH]c2ccccc12)C(=O)C=Cc1cc(C(F)(F)F)cc(C(F)(F)F)c1` (stereo not drawn) gave a melting point of 68 to 70 °C.

The compound `Cc1ccn2cc(CC(=O)N3CCN(c4ccc5[nH]c(=O)ccc5c4)CC3)nc2c1` showed a melting point above 250 °C. With `CCOC(=O)Cn1cc(C(=O)NCCN(C)C)c2nc3c(C)cccc3cc2c1=O` the figure was 214 to 215 °C; with `CCCOCCOC(=O)C1=C(C)NC(C)=C(c2nc(CCl)no2)C1c1cccc([N+](=O)[O-])c1` (stereo not drawn), 129 to 130 °C; with `C=CCNC(=O)c1cc(Cl)c2[nH]ncc2n1`, 121 to 125 °C. With `CC(C)CC1(C(N)C(=O)OC(C)(C)C)CCN(CCc2ccccc2)C1=O` (stereo not drawn) the figure was 111 to 113 °C.

The compound `N#CCCNC(=O)Nc1cc(N2CC(c3ccccc3)CC2=O)ccn1` (stereo not drawn) came in with a melting point of 260 to 263 °C. The figure for `CCOC(=O)CN=C(c1ccccc1)c1ccccc1NC1CCN(C)CC1` is 102 to 103 °C; for `Nc1c(Br)cc(Cc2cc(Br)c(N)c(Br)c2)cc1Br` it is above 250 °C.

Regarding `Brc1cc2c(cc1Br)Sc1ccccc1S2`, the melting point lay within 160 to 161 °C. With `CN1C(C)(C)CC2(CC1(C)C)NC(=O)N(CC(O)COCC(O)COCC(O)CN1C(=O)NC3(CC(C)(C)N(C)C(C)(C)C3)C1=O)C2=O` (stereo not drawn) the figure was 175 to 177 °C; with `CC(C)(C)c1cc(C2(C)NC(=O)NC2=O)cc(C(C)(C)C)c1O` (stereo not drawn), 260 °C.

`Cn1nnnc1SCC(=O)Nc1ccc(C2CCCCC2)cc1` showed a melting point of 204 to 205 °C.

For the compound `Cc1c(C)c([N+](=O)[O-])c(C)c2c1OC(C)(C)C2c1ccccc1` (stereo not drawn), the melting point lay in the range of 155 to 156 °C.

On to `CNc1cc(Sc2ccc(O)cc2)c(N)cc1[N+](=O)[O-]`, for which the melting point came to 206 °C. With `CCCCC1(N(C)C)CCC(c2[nH]c3ccccc3c2C)(c2[nH]c3ccccc3c2CCN)CC1` (stereo not drawn), the melting point fell in the range of 105 to 112 °C. The figure for `CN(CCC1=C(C#N)C(c2cccc3nonc23)c2c[nH]nc2N1)C(=O)OC(C)(C)C` (stereo not drawn) is 240 °C; for `CN(c1ncc2ncnc(Nc3ccc(F)c(Cl)c3)c2n1)[C@H]1CC[C@H](N)CC1` it is 203 to 205 °C.

As to `COC(=O)C1=C(C)NC(C)=C(C(=O)OC)C1c1cc(Br)ccc1OCC(=O)NCCO[N+](=O)[O-]`, the melting point was in the range of 166 to 167 °C. The figure for `COc1ccc2nc(-c3nc(N)nc(N)n3)sc2c1` is above 250 °C. The figure for `COc1cc(N2CCCN(C[C@H](O)CO)CC2)ccc1Nc1ncc2ccc(-c3ccccc3N(C)S(C)(=O)=O)n2n1` is 93 to 99 °C; for `Nc1ccc(Oc2ccc3sncc3c2)c(C(F)(F)F)c1` it is 136 °C. With `N#CCCNC(=O)c1cccc(-c2cccc3sc(Cc4cccc(C(F)(F)F)c4)cc23)c1` the figure was 137 to 138 °C; with `CCCC/C(=C\C(=O)O)c1cc(OC)c(O)c2c(CC)cccc12`, 139 to 140 °C. With `Cc1cc([N+](=O)[O-])c(C(=O)O)cc1F`, the melting point lay in the range of 163 to 165 °C.

In turn, `CCOC(=O)c1cnn(C)c1C(=O)Nc1ccc2nc(-c3ccccc3)nn2c1` showed a melting point of 251 to 254 °C. `CC(CO[N+](=O)[O-])NC(=O)[C@@H]1CSC(=O)N1` (stereo partly drawn) registered a melting point of 112 to 114 °C. For `CCOC(=O)Nc1ccc(OC)nc1`, the melting point was determined as 76 °C. With `Cc1ccc2ccc(NCc3c(C)c(CNc4ccc5ccc(C)nc5n4)c(C)c(CNc4ccc5ccc(C)nc5n4)c3C)nc2n1` the figure was 207 to 208 °C. With `CCOCc1nc2c(N)nc(C)cc2n1CCCCN` the figure was 108 to 111 °C; with `Cc1nc(Nc2ccccc2)sc1-c1nc2ccccc2c(=O)n1-c1ccccc1Cl`, 228 to 229 °C; with `Cc1nc(N2CCC(c3ccccc3)CC2)c([N+](=O)[O-])c(=O)[nH]1`, 210 to 213 °C. The figure for `CCCCCCCCCCCCc1cc(NC(=O)Nc2c(C(C)C)cccc2C(C)C)no1` is 101 to 107 °C. In turn, `COC(=O)C1CCC2C3CCC4CC(O)CCC4(C)C3C(NC3CCCC3)CC12C` (stereo not drawn) had a melting point of 143 to 145 °C.

For `Cc1cnc(C2=NC(C)(C(C)C)C(=O)N2)c(C(=O)c2cccs2)c1` (stereo not drawn), the melting point lay in the range of 168 to 170 °C.

Compound `CC(C)CCC(=O)NC1(C(=O)NC2N=C(C(C)(C)C)c3ccccc3N(C)C2=O)CCCC1` (stereo not drawn) came in with a melting point of 175 to 178 °C. The figure for `c1ccc(CN2CCC(c3cc(-c4ccccc4)[nH]n3)CC2)cc1` is 130 to 131 °C. The figure for `CC(C)(C)OC(=O)NCCCCNC(=O)COc1cccc(C(F)(F)F)c1` is 86 °C; for `O=C1c2ccccc2CN1CCC#Cc1ccccn1` it is 94 to 98 °C. In the case of `Cc1c(Cl)n(C2OC(CO)C(O)C2O)c2cc(Cl)c(Cl)cc12` (stereo not drawn), the melting point was in the range of 190 to 191 °C. The compound `N=C(Nc1cc(Cl)cc(NC(=O)/C=C/c2ccccc2Cl)c1)c1ccccc1` gave a melting point of 105 to 115 °C. For `CCN1CCC(=O)N(c2c(C)cccc2Cl)C1=S`, the melting point lay in the range of 141 to 144 °C. The figure for `CC(C)(C)OCC(=O)c1cnc(NC(=O)C(C)(C)C)cn1` is 138 to 140 °C. The figure for `CCc1c(N2CCC(N)CC2)c(F)cc2c(=O)c(C(=O)O)cn(C3CC3)c12` is 248 to 249 °C. In turn, `C[C@H]1C(=O)C[C@@H]2C[C@H]1OO[C@]2(C)/C=C/C(=O)c1ccc(Cl)cc1` had a melting point of 127 °C. The compound `N#CCc1ccc(-c2coc3cc(O)c(O)cc3c2=O)cc1` displayed a melting point of 258 to 260 °C. The figure for `COC(=O)C1CCC2(C3(C)OCCO3)CC1C(=O)O2` (stereo not drawn) is 69 to 71 °C; for `CCOC(=O)C=CN1C(C)(C)CC(OC(=O)CCl)CC1(C)C` it is 80 to 82 °C; for `CSc1ccc(-c2nc3[nH]nc(N)c3c(=O)n2-c2ccc(C)c(C)c2)cc1` it is 263 to 266 °C. With `CC1CC=NN1C(=O)c1cccnc1` (single isomer, unassigned; (-)) the figure was 67 to 69 °C; with `CC(Oc1ncn(-c2ccc(Br)cc2)n1)C(=O)N1CCCC1` (stereo not drawn), 144 to 145 °C; with `NCc1ccccc1NC1CCN(Cc2ccccc2)CC1`, 117 to 118 °C. With `CC(C)(C)CC(C)(C)c1cc(-n2nc3ccc(S(=O)(=O)c4ccccc4)cc3n2)c(O)c(C(C)(C)c2ccccc2)c1` the figure was 170 to 171 °C; with `CCOC(=O)C(Cc1cccc(OCC(F)(F)C(F)F)c1)C(=O)c1ccc(F)cc1` (stereo not drawn), 55 to 56 °C; with `Cc1cc(C2=NOC(c3cc(Cl)cc(Cl)c3)(C(F)(F)F)C2)ccc1C(=O)NC1CSSC1` (stereo not drawn), 73 °C. Take `COc1ccc(CN[C@@H](C(=O)O)[C@@H](O)[C@H](Cc2ccccc2)NC(=O)OC(C)(C)C)cc1`: the melting point was 203 to 206 °C. The figure for `COc1c(O)ccc2c1OCC2=O` is 160 °C; for `CC(=O)NC[C@H]1CN(c2ccc(C3CCN(C(=O)CO)CC3)c(F)c2)C(=O)O1` it is 182 to 183 °C; for `Cc1ccc2c(=O)[nH]c(C3CCN(C)CC3)cc2c1` it is 236 to 238 °C. The figure for `Cc1c(SCCCn2c([N+](=O)[O-])cnc2C)ccnc1CSc1ncccn1` is 141 to 143 °C; for `Cc1n[nH]c(-c2ccccc2)c1-c1ccncc1` it is 212 to 214 °C. The figure for `O=C(NO)c1ccc(CNC(=O)c2[nH]c(-c3ccccc3)cc2-c2ccc([N+](=O)[O-])cc2)cc1` is 179 to 180 °C.

The melting point is the temperature, or range, at which the solid turns liquid.
